From patent US12648939B2, “Compounds and methods for treating spasticity” (Lexicon Pharmaceuticals, Inc., priority 2022, dated 2026) come the findings set out here.

For assay [1], the system named is myelin oligodendrocyte glycoprotein (MOG)-induced murine model of experimental autoimmune encephalomyelitis (EAE). Put plainly: Body weight in MOG-induced EAE model. The class given is in vivo, C57BL/6J mice. The conditions noted are these: throughout the study. As for the experimental part:
(§1) The effect of Compound 1 on spasticity was evaluated in a myelin oligodendrocyte glycoprotein (MOG)-induced murine model of experimental autoimmune encephalomyelitis (EAE), a central nervous system (CNS) autoimmune demyelinating disease that mimics many of the clinical and pathologic features of multiple sclerosis. Gilgun-Sherki Y., et al., Neurosciences Research 47:201-207, 2003.
(§2) Study Design and Results. This study used sixty female young adult (10-11 weeks at study initiation) C57BL/6J mice sourced from Envigo RMS (Israel), Ltd. The animals were divided into five experimental groups:
(§3) Each group received a dose volume of 5 ml/kg, and the regimen was performed daily from day 0 to 22 of the study, QD. On study day 21, half of the animals in each group was treated and tested for electrophysiology and electromyography (EMG) two hours post dosing. On study day 22, the same was performed with the remaining half of the animals in each group.
(§4) FIG. 1 provides a representation of the study. Following baseline measurements, the MOG murine model begins with a sensitization period induced by the single subcutaneous (SC) injection of MOG emulsified in Complete Freund's adjuvant (CFA) on Study Day 0, followed by intraperitoneal (IP) supplemental immunostimulation with pertussis toxin (PT) carried out once at the day of EAE induction (study day 0) and once again 48 hours later (on study day 2). […] Mechanical allodynia was tested using the Von Frey test at Baseline and on Day 9 at various timepoints. For evaluation of spasticity, transcranial motor-evoked potentials (tcMEPs) were tested at Baseline and on Days 9 and 21-22 (half of the animals on each day). All animals were administered treatment once daily, starting on Day 0 until Day 22. Animals in Group 1 received oral (PO) treatment with the vehicle. Animals in Group 2 were treated with Fingolimod (FTY720; positive control) at a dose level of 3 mg/kg. PO. Animals in Groups 3 and 4 were treated with the test item Compound 1 at a dose level of 10 mg/kg or 3 mg/kg, PO, respectively. […]

In assay [2] the test system is rat model of spasticity induced by complete spinal cord transection. Put plainly: Rate-dependent depression (RDD) of the H-reflex in SCI rats. The assay is classed as in vivo. The conditions noted are these: for duration of action (H-reflex RDD): recordings up to 6 hours. As to the method:
The efficacy of Compound 1 was measured in a rat model of spasticity induced by complete spinal cord transection. To induce muscle spasticity, a model of complete spinal cord transection cord at the eighth thoracic (T8) vertebral level was used. Five weeks after the Spinal Cord Injury (SCI), the rats were orally (P.O.) treated with Compound 1 (3, 10, or 30 mg/kg), Baclofen (4.5 mg/kg). Tizanidine (3 mg/kg) or vehicles alone (0.9% NaCl, Compound 1 vehicle), and the degree of spasticity response was measured using the rate-dependent depression (RDD) of the Hoffmann's reflex (H-reflex) and spasms induction.
Materials and Methods. […] One hundred and fifty-one SCI rats were maintained up to the end of the 5th post-injury week. One hundred and forty rats were submitted to P.O. administration of the test compounds and EMG analysis.
The rat was firmly restrained to immobilize the head. In an upright position, the gavage needle was passed along the side of the mouth. Following the roof of the mouth, the needle was advanced into the esophagus and toward the stomach. After the needle is passed to the correct length, the compound was slowly injected. The rats were randomly assigned to one of the test groups:
Electroneuromyographical recordings were performed in the right hind limbs before and 1, 2, 3, 4, 5 and 6 hours after P.O. administration.
Electromyographical (EMG) signals were amplified (100×) and bandpass filtered (300 Hz to 5 kHz; A-M Systems Amplifier. Everett, Washington; model 1700) before sampling at 13.5 kHz (Digidata 1440A, Molecular Devices). The tibial nerve was stimulated by using square pulses with increasing stimulus intensities (0.2 mA increments starting from 0.2 mA, 0.2 Hz, 0.2 ms; A-M systems stimulator, Model 2100) to obtain recruitment curves.
RDD of the H-reflex: To induce sedation, intraperitoneal injection of ketamine (100 mg/kg; Imalgen®) was used to suppress voluntary movements and increase muscle tone. Rats thorax and hindlimbs were secured on a heating pad with adhesive tape. The following series of measurements were repeated throughout the experiment: • 1. Hmax and Mmax determination: the tibial nerve was stimulated for 0.2 ms at 0.2 Hz with increasing current intensities (1-6 mA in 0.1 mA increments) until Mmax was stabilized. • 2. RDD measurement: the intensity necessary to obtain a maximal H-reflex was used for trains of 13 stimulations at 0.2, 1, 2 and 5 Hz with 2 min intervals between each train of stimulations. A whole series of measurements lasted about 15 minutes. • 3. Determination of the level of RDD: at the different frequencies, responses to the first three stimulations necessary for the depression to occur were discarded, and all the responses were expressed as percentages relative to the mean response at 0.2 Hz in the same series of measurements.
Data analysis: H-reflex RDDs and areas under the curves (AUC) were determined as a measurement of spasticity and analyzed at each time point and for each frequency with Mann-Whitney test or with Kruskal Wallis one-way analysis of variance (ANOVA) test, followed by Dunn's multiple comparisons test. P<0.05 was considered significant. Significant differences were marked with asterisks (*) according to their respective P-values: values were expressed as the mean value±standard error of the mean (SEM) in all graphs. All statistical analyses were performed using GraphPad Prism 7 (San Diego, California, USA).
Modulation of the RDD of the H-reflex. The Hoffmann reflex was used to assess primary (type 1a) afferents-mediated motoneuronal excitability in rats suffering from spasticity. Electromyograms typically show two responses: an initial M wave (FIG. 6B) resulting from the direct activation of motor axons (FIG. 6A-1), and a delayed H wave (FIG. 6B) resulting from the monosynaptic activation of motoneurons by the afferents (FIG. 6A-2). […]

The subject of assay [3] is myelin oligodendrocyte glycoprotein (MOG)-induced murine model of experimental autoimmune encephalomyelitis (EAE). Put plainly: Electrophysiology (EMG, transcranial motor-evoked potentials) in EAE model. The class given is in vivo, C57BL/6J mice. The conditions noted are these: for latency: vehicle 6.94±0.59 ms; for peak-to-peak (P2P) amplitude: vehicle 7681.17±1505.12 μV; for rate of fibrillation (EMG): Day 21, vehicle printed 1.11±4.69 Hz. As for the experimental part: as §1, §2, §3
FIG. 1 provides a representation of the study. Following baseline measurements, the MOG murine model begins with a sensitization period induced by the single subcutaneous (SC) injection of MOG emulsified in Complete Freund's adjuvant (CFA) on Study Day 0, followed by intraperitoneal (IP) supplemental immunostimulation with pertussis toxin (PT) carried out once at the day of EAE induction (study day 0) and once again 48 hours later (on study day 2). […] Mechanical allodynia was tested using the Von Frey test at Baseline and on Day 9 at various timepoints. For evaluation of spasticity, transcranial motor-evoked potentials (tcMEPs) were tested at Baseline and on Days 9 and 21-22 (half of the animals on each day). All animals were administered treatment once daily, starting on Day 0 until Day 22. Animals in Group 1 received oral (PO) treatment with the vehicle. Animals in Group 2 were treated with Fingolimod (FTY720; positive control) at a dose level of 3 mg/kg. PO. Animals in Groups 3 and 4 were treated with the test item Compound 1 at a dose level of 10 mg/kg or 3 mg/kg, PO, respectively. Animals in Group 5 were treated with Tizanidine at a dose level of 1 mg/kg, IP.
Electrophysiology: The animals were subjected to electrophysiology testing at Baseline and Days 10 and 21 of the study. The EMG, latency, latency to main event, duration, peak-to-peak (P2P) amplitude, and number of subpeaks were recorded.

Assay [4] shares this test system. The experiment in a line: EAE clinical score and AUC. The class given is in vivo, C57BL/6J mice. The note with it: 10 mg/kg or 3 mg/kg PO QD. As to the method: as §1, §2
as §4, with “22.” for “22. Animals in Group 1 received oral (PO) treatment with the vehicle. Animals in Group 2 were treated with Fingolimod (FTY720; positive control) at a dose level of 3 mg/kg. PO. Animals in Groups 3 and 4 were treated with the test item Compound 1 at a dose level of 10 mg/kg or 3 mg/kg, PO, respectively.”

Where [5] appears, read: both dose levels (10 and 3 mg/kg PO QD).

For the compound `CC(C)C[C@](C)(N)COc1ccc(-c2ccnc(C(F)F)c2)nc1C(F)F` [Compound 1, (S)-1-((2′,6-bis(difluoromethyl)-[2,4′-bipyridin]-5-yl)oxy)-2,4-dimethylpentan-2-amine], the “BW compared to vehicle group” value in assay [1] (3 mg/kg PO QD) and in assay [1] (10 mg/kg PO QD) was “not significantly different from the vehicle group” in each case. Besides, in assay [2] (single P.O. 3 mg/kg, SCI rats 5 weeks after injury), the “mean relative amplitudes of the H-reflex (RDD), effect on spasticity” value is reported as “did not appear to affect spasticity”. The “onset of action (H-reflex RDD)” value in assay [2] (single P.O. 10 mg/kg) and in assay [2] (single P.O. 30 mg/kg) was 1 h in each case. Further, the “mean relative amplitudes of the H-reflex (RDD)” value is “significantly reduced” in assay [2] (single P.O. 10 mg/kg, SCI rats 5 weeks after injury) and “significantly reduced” in assay [2] (single P.O. 30 mg/kg, SCI rats 5 weeks after injury). For the same compound, the “duration of action (H-reflex RDD)” value is “at least 6 hour” in assay [2] (single P.O. 10 mg/kg) and “at least 6 hours” in assay [2] (single P.O. 30 mg/kg). Further, the latency amounted to 5.31 ± 0.21 ms in assay [3] (3 mg/kg PO QD, Day 10) and 5.54 ± 0.22 ms in assay [3] (10 mg/kg PO QD, Day 10). Further, the “latency until reaching the main event” value in assay [3] (3 mg/kg PO QD, Day 10, vehicle 10.05±2.59 ms) was 5.32 ± 0.22 ms. For the same compound, the “peak-to-peak (P2P) amplitude” value in assay [3] (3 mg/kg PO QD, Day 10) is 11321.67±1321.68 μV; in assay [3] (10 mg/kg PO QD, Day 10) it was 11613.75±1154.41 μV. Besides, the “rate of fibrillation (EMG)” value came out at 0.38±0.38 Hz in assay [3] (3 mg/kg PO QD) and 1.22±0.57 Hz in assay [3] (10 mg/kg PO QD). In assay [3] (setting [5]), the “duration compared to vehicle treated animals” value is “reduced”. For the same compound, in assay [3] (setting [5]), the “number of sub potentials compared to vehicle treated animals” value was “reduced”. Besides, the “clinical score compared to the vehicle” value in assay [4] was “did not result in a significant reduction”.
